# Measurements: patent US12070037B2, “Methods and compositions for bioprotection of potatoes from Streptomyces scabies” (THE ROYAL INSTITUTION FOR THE ADVANCEMENT OF …, priority 2018, dated 2024)
# Tested on: Streptomyces scabies
# Assay: agar well diffusion assay
# Type: cell-based
# Description: In addition, the antimicrobial activity of the crude extracts from Bacillus pumilus and Bacillus subtilis was assessed via agar well diffusion assay. A spore suspension of Streptomyces scabies was overlaid on PDA and the plates were allowed to air dry. A 50 μL drop of crude extracts from Bacillus pumilus (top), Bacillus pumilus (right), and Bacillus subtilis (left) were poured into agar well and a control solution was pour on the bottom of the agar well.
# The concentrated material (crude extract) in the vessel was suspended in 10% acetonitrile (AcN/H2O, v/v) and frozen at −20° C. until further analysis. The crude extract was centrifuged (Sorvall Biofuge Pico, Mandel Scientific, ON, Canada) at 13,000 rpm for 30 min to remove insoluble particles. The supernatant was filter sterilized (PVDF, […], Fisher Scientific, Montreal, Canada) and tested for biological activity against Streptomyces scabies. The filtered extract was then loaded onto a C18 column (Restek™, Fisher Scientific, Montreal, Canada) and eluted with 20 mL of 10%, 20%, 40%, 60%, 80% and 100% acetonitrile and the fractions were collected. The eluted fractions under various concentrations of acetonitrile were lyophilized (SNL216V, Savant Instruments Inc., NY, USA), suspended in sterilized distilled water and tested for biological activity against Streptomyces scabies. The fraction showing an inhibition zone against Streptomyces scabies was selected for further fractionation by HPLC. The active fraction was stored in sterilized vials at 4° C. prior to HPLC analysis.
# The antimicrobial activities of Micrococcin P1 at various concentrations were assessed via agar well diffusion assay. A spore suspension of Streptomyces scabies was overlaid on PDA and the plates were allowed to air dry. A 50 μL drop of Micrococcin P1 diluted in various concentrations were applied into agar well.
substance,measurement,setting,value
Micrococcin P1,minimal amount giving growth inhibition zones,"per well, in 50 μL, PDA, 3 days 30° C.",≥ 31.25 ng
same,antimicrobial activity of the standard,tested for biological activity,showed antimicrobial activity against Streptomyces scabies
same,dose dependence of antibacterial activities,"up to 5 mg/L (4.37 μM), highest concentration tested",increased proportional to the Micrococcin P1 concentrations
